Values quoted from earlier work in patent publication US6764693B1, “Free radical quenching composition and a method to increase intracellular and/or extracellular antioxidants” (Amaox, Ltd., priority 1992, dated 2004).

Legend:
[1] = antioxidant placed in liposomes
[2] = separate experimental protocols
[3] = oxidants from activated leukocytes
[4] = system: HIV in U1 cell line (promonocytes); conditions: increasing thiol concentration in culture medium of U1 cells
[5] = free GSH, intravenous
[6] = pH of 1.0
T lymphocytes = conditions: activated leukocytes combined with T lymphocytes

Compound | mortality [2] [%] | effect on lipid peroxidation of liposomes [3] | effect on HIV [4] | also measured
Cc1c(C)c2c(c(C)c1O)CCC(C)(CCCC(C)CCCC(C)CCCC(C)C)O2 (stereo not drawn) [vitamin E, alpha-tocopherol] | 46 | conferred protection against lipid peroxidation | – | effect on lipid peroxidation in liposomes exposed to uv [1]: inhibited
beta carotene [beta-carotene] | – | conferred protection against lipid peroxidation | – | effect on lipid peroxidation in liposomes exposed to uv [1]: inhibited
N[C@@H](CCC(=O)N[C@@H](CS)C(=O)NCC(=O)O)C(=O)O [glutathione] | 100 | – | suppression of viral assembly, HIV reverse transcriptase production and viral replication | t½ [5]: approximately 1.6 minutes; rate constant K2 against the hydroxyl radical [6]: 8.8×10^9
catalase | – | inhibited peroxidation | – | suppression of lymphocytic function (T lymphocytes): no suppression of lymphocytic function
CC(C)(C)/[N+]([O-])=C/c1ccccc1 [PBN, phenyltertylnitrone] | 42 | – | – | –
CC(=O)N[C@@H](CS)C(=O)O [NAC, N-acetyl-cysteine] | – | – | suppression of viral assembly, HIV reverse transcriptase production and viral replication | rate constant K2 against the hydroxyl radical [6]: 1.36×10^10
glutathione ester [GSE] | – | – | suppression of viral assembly, HIV reverse transcriptase production and viral replication | –
